# Measured values published in US20250230138A1, “COMPOUNDS HAVING A T-STRUCTURE FORMED BY AT LEAST FOUR CYCLES FOR USE IN THE TREATMENT OF CANCER AND OTHER INDICATIONS” (TheRas, Inc., priority 2022, published 2025).
# Where two headings read alike, the source gives them in different places.
# Legend:
# pAKT in BT474 cells = experiment: Cell-based pAKT HTRF assay in BT474 cells; conditions: BT474 cells, 4 hr incubation, read-out: pAKT inhibition IC50 in BT474 cells
# Procedure, shortened: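 BT474 cells in DMEM/10% FBS were treated the day after seeding with a 9-point, 3-fold compound series from 3 μM (0.25% DMSO) for 4 hr. Lysates were mixed with d2 and Eu cryptate anti-pAKT antibodies and incubated 4-24 h at room temperature. HTRF was read with excitation at 320 nm and emission at 615 nm.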
# [1] = target: Cys242 in human PIK3CA (157-299) (Homo sapiens (Human), UniProt P42336); experiment: Covalent modification assay using MALDI-TOF MS; assay type: biochemical; conditions: 4 h reaction time point
# Procedure, shortened: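 PIK3CA (157-299), 3.33 or 1 μM in 20 mM HEPES, 150 mM NaCl, 2 mM MgCl2, pH 7.3, was incubated with compound at room temperature in the dark for 15 min, 30 min, 2 h or 4 h. Linear MALDI-TOF read-out; % modification = adduct peak height over summed heights of all protein species.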
# [2] = 1 μM protein target, 1:5 protein to compound ratio (compounds 853-1279)
# [3] = 3.33 μM protein target, 1:7.5 protein to compound ratio (compounds 1-852)
# Cys242 in human PIK3CA (157-299), sequence (P42336 157-299): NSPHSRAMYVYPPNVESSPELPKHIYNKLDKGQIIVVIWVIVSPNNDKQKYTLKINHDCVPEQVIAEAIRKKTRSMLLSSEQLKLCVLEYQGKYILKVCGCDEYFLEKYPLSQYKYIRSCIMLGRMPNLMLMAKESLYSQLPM
SMILES,IC50 (pAKT in BT474 cells; Compounds 1000-1279) [nM],"% of modification [1, 2]","IC50 (pAKT in BT474 cells; Homo sapiens, BT-474, Compounds 10-999) [nM]","% of modification [1, 3]",IC50 (pAKT in BT474 cells; Compounds 10-999) [nM]
C=CC(=O)N1CCn2nc(-c3nc(-c4cncc(CN(C)C)c4)c4ccsc4c3-c3c(F)cc(F)cc3OCCOC)cc2C1C (centres unmarked) [Compound 1141],< 100,A (percent of modification of PIK3CA protein ≥75%),,,
C=CC(=O)N1CCn2nc(-c3nc(-c4ccc5c(c4)C(=O)NC5)c4ccsc4c3-c3c(F)cc(F)cc3OC)cc2C1C (centres unmarked) [Compound 1117],< 100,A (percent of modification of PIK3CA protein ≥75%),,,
"C=CC(=O)N1CCc2oc(-c3nc(-c4ccc5c(c4)CCNC5)c4ccsc4c3-c3ccc(F)cc3OC)nc2C1 [Compound 112, 1-[2-[7-(4-fluoro-2-methoxy-phenyl)-4-(1,2,3,4-tetrahydroisoquinolin-6-yl)thieno[3,2-c]pyridin-6-yl]-6,7-dihydro-4H-oxazolo[4,5-c]pyridin-5-yl]prop-2-en-1-one]",,,100 to 1000,A (percent of modification of PIK3CA protein ≥75%),
C=CC(=O)N1Cc2cc(-c3nc(-c4cnccn4)c4ccsc4c3-c3c(F)cc(F)cc3OCCOC)nn2C[C@H]1C [Compound 840],,,,A (percent of modification of PIK3CA protein ≥75%),< 100
"C=CC(=O)N1CCn2nc(-c3nc(-c4cnc5c(c4)CN(C)CC5)c4ccsc4c3-c3c(F)cc(F)cc3OC)cc2[C@H]1C (single isomer, unassigned) [Compound 1147]",< 100,A (percent of modification of PIK3CA protein ≥75%),,,
COC/C=C/C(=O)N1CCn2nc(-c3nc(-c4ccc5c(c4)CCNC5=O)c4ccsc4c3-c3ccc(F)cc3OC(C)C)cc2C1 [Compound 277],,,,A (percent of modification of PIK3CA protein ≥75%),100 to 1000
C=CC(=O)N1CCc2ncc(-c3nc(-c4cncc(F)c4)c4ccsc4c3-c3c(F)cc(F)cc3OC(C)C)cc2C1 [Compound 406],,,,A (percent of modification of PIK3CA protein ≥75%),< 100
C=CC(=O)N1CCn2nc(-c3nc(-c4ccc(=O)n(C)c4)c4ccsc4c3-c3c(F)cc(F)cc3OCCO)cc2C1C (centres unmarked) [Compound 872],,A (percent of modification of PIK3CA protein ≥75%),,,< 100
C=CC(=O)N1CCn2nc(-c3nc(-c4ccc(OCCN(C)C)nc4)c4ccsc4c3-c3c(F)cc(F)cc3OCCOC)cc2C1C (centres unmarked) [Compound 1065],< 100,A (percent of modification of PIK3CA protein ≥75%),,,
C=CC(=O)N1Cc2cc(-c3nc(-c4cnn(C)c4)c4ccsc4c3-c3c(F)cc(F)cc3OCCO)nn2[C@@H](C)C1 [Compound 566],,,,D (percent of modification <25%),100 to 1000
C=CC(=O)N1CCn2nc(-c3nc(-c4ccnc(OCCN(C)C)c4)c4ccsc4c3-c3c(F)cc(F)cc3OCCOC)cc2C1C (centres unmarked) [Compound 1199],< 100,A (percent of modification of PIK3CA protein ≥75%),,,
C=CC(=O)N1CC(n2cc(-c3nc(-c4cnn(CCO)c4)c4ccsc4c3-c3ccc(F)cc3OCCOC)cn2)C1 [Compound 233],,,,A (percent of modification of PIK3CA protein ≥75%),< 100
C=CC(=O)N1CCn2nc(-c3nc(-c4ccc5c(c4)CCNC5=O)c4ccsc4c3-c3c(F)cc(F)cc3OC)cc2C1C (centres unmarked) [Compound 1120],< 100,A (percent of modification of PIK3CA protein ≥75%),,,
C=CC(=O)N1CCC(n2cc(-c3nc(-c4ccc5c(c4)CNC(=O)C5)c4ccsc4c3-c3ccc(F)cc3)cn2)CC1 [Compound 69],,,,A (percent of modification of PIK3CA protein ≥75%),1000 to 3000
C=CC(=O)N1CCc2nc(-c3nc(-c4cnn(C)c4)c4ccsc4c3-c3c(F)cc(F)cc3OCCO)sc2C1 [Compound 398],,,,A (percent of modification of PIK3CA protein ≥75%),< 100
C=CC(=O)N1CCc2ccc(-c3nc(-c4ccc5c(c4)CNC(=O)C5)c4ccsc4c3-c3c(F)cc(F)cc3OCCOC)cc2C1 [Compound 1066],100 to 1000,D (percent of modification <25%),,,
C=CC(=O)N1Cc2cc(-c3nc(-c4ccc5c(c4)CCNC5=O)c4ccsc4c3-c3c(F)cc(F)cc3OCCO)nn2CC1C (centres unmarked) [Compound 907],,A (percent of modification of PIK3CA protein ≥75%),,,< 100
C=CC(=O)N1CCn2nc(-c3nc(-c4cnn(C)c4)c4ccsc4c3-c3ccc(F)cc3OC(C)C)c(C)c2C1 [Compound 320],,,,A (percent of modification of PIK3CA protein ≥75%),< 100
C=CC(=O)N1CCc2nc(-c3nc(-c4ccc5c(c4)CCNC5)c4ccsc4c3-c3c(F)cc(F)cc3OCCO)sc2C1 [Compound 415],,,,A (percent of modification of PIK3CA protein ≥75%),100 to 1000

SMILES,IC50 (pAKT in BT474 cells; Compounds 1000-1279) [nM],"% of modification [1, 2]","IC50 (pAKT in BT474 cells; Homo sapiens, BT-474, Compounds 10-999) [nM]","% of modification [1, 3]",IC50 (pAKT in BT474 cells; Compounds 10-999) [nM]
C=CC(=O)N1CCc2nc(-c3nc(-c4ccc5c(c4)CCN(C)C5)c4ccsc4c3-c3ccc(F)cc3OCCOC)sc2C1 [Compound 107],,,,A (percent of modification of PIK3CA protein ≥75%),< 100
C=CC(=O)N1CCc2ncc(-c3nc(-c4cnc(C)n4C)c4ccsc4c3-c3c(F)cc(F)cc3OC(C)C)cc2C1 [Compound 412],,,,A (percent of modification of PIK3CA protein ≥75%),< 100
C=CC(=O)N1Cc2cc(-c3nc(-c4cnc5c(cnn5C)c4)c4ccsc4c3-c3c(F)cc(F)cc3OCCOC)nn2C[C@H]1C [Compound 797],,,,A (percent of modification of PIK3CA protein ≥75%),< 100
C=CC(=O)N1CCn2nc(-c3nc(-c4ccc5c(c4)CNC(=O)C5)c4ccsc4c3-c3c(F)cc(F)cc3OCCOC)cc2C1C (centres unmarked) [Compound 931],,A (percent of modification of PIK3CA protein ≥75%),,,< 100
C=CC(=O)N1CCc2ncc(-c3nc(-c4cccc(C#N)c4)c4ccsc4c3-c3c(F)cc(F)cc3OCCOC)cc2C1 [Compound 380],,,,A (percent of modification of PIK3CA protein ≥75%),< 100
C=CC(=O)N1CCn2nc(-c3nc(-c4ccc5cnncc5c4)c4ccsc4c3-c3c(F)cc(F)cc3OCCO)cc2[C@@H]1C [Compound 672],,,,A (percent of modification of PIK3CA protein ≥75%),< 100
C=CC(=O)N1CCn2nc(-c3nc(-c4cnn(C(F)F)c4)c4ccsc4c3-c3ccc(F)cc3OCCOC)cc2C1 [Compound 245],,,,A (percent of modification of PIK3CA protein ≥75%),< 100
C=CC(=O)N1CCn2nc(-c3nc(N4CCN(C(C)C)CC4)c4ccsc4c3-c3ccc(F)cc3OCCOC)cc2C1 [Compound 209],,,,A (percent of modification of PIK3CA protein ≥75%),< 100
C=CC(=O)N1CCn2nc(-c3nc(-c4ccc(N5CCN(C)CC5)nc4)c4ccsc4c3-c3c(F)cc(F)cc3OCCOC)cc2C1C (centres unmarked) [Compound 930],,A (percent of modification of PIK3CA protein ≥75%),,,< 100
C=CC(=O)N1CCc2ncc(-c3nc(-c4ccc5c(c4)CCN(C)CC5)c4ccsc4c3-c3c(F)cc(F)cc3OCCOC)cc2C1 [Compound 1085],< 100,A (percent of modification of PIK3CA protein ≥75%),,,
"C=CC(=O)N1CCn2nc(-c3nc(-c4ccc5c(cnn5C)c4)c4ccsc4c3-c3c(F)cc(F)cc3OCCO)cc2[C@@H]1C [Compound 663, 1-((S)-2-((S)-7-(2,4-difluoro-6-(2-hydroxyethoxy)phenyl)-4-(1-methyl-1H-indazol-5-yl)thieno[3,2-c]pyridin-6-yl)-4-methyl-6,7-dihydropyrazolo[1,5-a]pyrazin-5(4H)-yl)prop-2-en-1-one]",,,,A (percent of modification of PIK3CA protein ≥75%),< 100
C=CC(=O)N1CCn2nc(-c3nc(-c4ccc5c(c4)C(=O)N(C)CC5)c4ccsc4c3-c3c(F)cc(F)cc3OCCOC)cc2[C@H]1C [Compound 953],,A (percent of modification of PIK3CA protein ≥75%),,,< 100
C=CC(=O)N1CCc2ccc(-c3nc(-c4ccc5c(c4)C(=O)NC5)c4ccsc4c3-c3c(F)cc(F)cc3OCCOC)cc2C1 [Compound 1107],< 100,A (percent of modification of PIK3CA protein ≥75%),,,
C=CC(=O)N1Cc2cc(-c3nc(-c4ccc5nncn5c4)c4ccsc4c3-c3c(F)cc(F)cc3OCCO)nn2CC1C (centres unmarked) [Compound 903],,A (percent of modification of PIK3CA protein ≥75%),,,< 100
C=CC(=O)N1CCn2nc(-c3nc(-c4ccc5c(c4)C(O)CC5)c4ccsc4c3-c3ccc(F)cc3OCCOC)nc2C1 (centres unmarked) [Compound 192],,,,A (percent of modification of PIK3CA protein ≥75%),< 100
C=CC(=O)N1CCn2nc(-c3nc(-c4ccc5c(c4)CN(C)CC5)c4ccsc4c3-c3c(F)cc(F)cc3OCCO)cc2[C@H]1C [Compound 1136],< 100,A (percent of modification of PIK3CA protein ≥75%),,,
C=CC(=O)N1CCn2nc(-c3nc(-c4cnc5c(c4)CN(C)CC54CC4)c4ccsc4c3-c3c(F)cc(F)cc3OCCOC)cc2[C@H]1C [Compound 1163],< 100,A (percent of modification of PIK3CA protein ≥75%),,,
C=CC(=O)N1CCn2nc(-c3nc(-c4ccnc(N)c4)c4ccsc4c3-c3ccc(F)cc3OCCO)nc2C1 [Compound 197],,,,A (percent of modification of PIK3CA protein ≥75%),< 100
